From patent publication US11504394B2, “Targeted ionophore-based metal delivery” (The Regents of the University of California, priority 2018, dated 2022)

Experiments:
[1] = Stability in aqueous solutions at different pH (UV-vis); format: physicochemical; details: pH=3 to 8
Method: All spectroscopic measurements were performed in 20 mM PBS, pH 7.4 unless otherwise indicated. Absorption spectra were acquired on a Varian Cary 50 spectrophotometer.

[2] = Dynamic light scattering, colloidal aggregate formation; format: physicochemical
Method: To assess colloidal aggregate formation, Gal-Cu(gtsm) was dissolved in PBS (pH 7.4) to a final concentration of 1 mM. The hydrodynamic diameter (DH) of the formed colloidal particles were determined by dynamic light scattering (DLS) obtained on a Zetasizer® Nano Series (Malvern Instruments, UK) and reported as the number-weighted mean. Samples were filtered with a 0.2 μm syringe filter and measured with a disposable ZEN0040 cuvette. Peaks of varying sizes were found, indicating a polydisperse formation of Gal-Cu(gtsm) aggregates. Measurements were taken in triplicate. Error is reported as the standard deviation from three separate replicates.

HEK 293T cells = test: Cell viability, propidium iodide staining, HEK 293T; format: cell-based; details: 500 μM dose, three hours
Method: (§1) Flow cytometry experiments were performed with BD LSR Fortessa Cell Analyzer in the College of Chemistry at UC Berkeley. Gains were set to include live cells based on viability experiments using propidium iodide, with dead cells via 0.1% saponin treatment as a negative control. The standard PE-A (570 nm longpass, 586/15 nm bandpass) was used. For each biological replicate, three technical replicates of 5,000 (HepG2) or 10,000 cells (HEK 293T) were counted. Flow cytometry data was processed using FlowJo (FlowJo, LLC).
(§2) HEK 293T cells were plated in 6-well plates at 60-80% confluency. After ionophore treatment at the given concentration for three hours, cells were washed with DMEM and incubated with 3 μM propidium iodide in PBS for 15 minutes, then rinsed in PBS. HEK 293T cells were mechanically removed via pipetting off the plate with 1 mL PBS and filtered through a 35 μm nylon mesh into 5 mL culture tubes for analysis. HepG2 cells were plated in 12-well plates at 60-80% confluency. […]

[3] = test system: mouse model for non-alcoholic fatty liver disease; test: High fat diet mouse model for non-alcoholic fatty liver disease; format: in vivo, mice
Method: The potential of Gal-Cu(gtsm) in the treatment of non-alcoholic fatty liver disease (NFALD) was assessed in a mouse model. Mice were subjected to a high fat diet.

[4] = test system: blood urea nitrogen (BUN); test: Blood urea nitrogen (BUN) assay on serum; format: in vivo, mice; details: 0.75 mg Cu/kg
Method: (§3) Mice were immediately euthanized by cervical dislocation.
(§4) Liver lysate (TBARS Assay via TCA Method, Cayman Chemical) and serum (BUN Assay, Invitrogen; ALT Assay, Cayman Chemical) samples were processed according to manufacturer instructions; sample concentration was selected based on initial dilution screening to fall within linear range of the standard curve. All samples were analyzed in triplicate.

ATP7B Cu export protein = test: Western blot ATP7B in high fat diet mice; format: in vivo
[5] = mouse, in vivo
Method: FVB-luc+ mice were heavily anesthetized and blood was collected via cardiac puncture. Mice were immediately euthanized by cervical dislocation. Tissues were harvested, rinsed twice with DPBS, snap-frozen under liquid nitrogen, and placed on dry ice in cryotubes and stored at −80° C. until analysis. Serum was isolated by allowing blood samples to coagulate for 1 hour at room temperature, centrifuging at 1,500 g for 15 minutes at 4° C., then collecting the serum supernatant. Samples were aliquoted, snap-frozen, and stored at −80° C. until analysis.
20-100 mg portions of the harvested tissues were digested in concentrated nitric acid (100 mg tissue/mL HNO3, BDH Aristar Ultra) at 95° C. for 2 h in 1.5 mL tubes (Sarstedt) with small holes poked in the caps with an 18G needle. After overnight incubation at room temperature, samples were diluted into freshly prepared 2% nitric acid and doped with a gallium internal standard (Inorganic Ventures, diluted from 1 ppm in 2% nitric acid to a 20 ppb final concentration). The copper content was determined by measuring ^63Cu using a Thermo Fisher iCAP-Qc ICP-MS in Kinetic Energy Discrimination (KED) mode. Measurements were normalized to a standard curve of known copper concentrations doped with 20 ppb Ga. The standard curve was diluted from CMS-5 (Inorganic Ventures).

SOD = SOD assay in high fat diet mice; format: in vivo; details: vs untreated HFD mice
[6] = test system: alanine transaminase (ALT) activity; test: Serum alanine transaminase (ALT) assay; format: in vivo, mice; details: 6 hours, 0.75 mg Cu/kg
Method: as §3, §4

HepG2 cells [7] = test: Confocal imaging with copper sensing CF4 fluorescent probe; format: cell-based; details: HepG2, 100 μM Gal-Cu(gtsm) or 2 μM Cu(gtsm), 3 hours
Method: Confocal fluorescence images were acquired with a Zeiss LSM710 laser-scanning microscope with a 20× objective lens. Excitation at 543 nm for CF4 was carried out with appropriate lasers, and emission was acquired from 550 to 650 nm. HepG2 cells were plated between 50-80% confluency in 8-well glass chamber slides with gelatin coating. Cells were incubated with either vehicle, Cu(gtsm), or Gal-Cu(gtsm) for 3 hours in low glucose DMEM. The media was then aspirated and replaced with CF4 or Ctrl-CF4-S2 (2 μM freshly diluted from a 1 mM stock solution) in DPBS with calcium and magnesium, then incubated at 37° C. for 30 minutes. The buffer was then replaced with fresh DPBS (+Ca, +Mg) for imaging. Image analysis and quantification was performed using ImageJ (National Institutes of Health). Mean fluorescence intensity was analyzed with a minimum threshold of 20 pixels and maximum threshold of 255 pixels.

HepG2 cells [8] = test: Cell viability, propidium iodide staining, HepG2; format: cell-based; details: 500 μM dose, HepG2, three hours
Method: as §1, §2

SMILES: CNC1=N[N+]2=CC=[N+]3N=C(NCCOCCOCCOC4OC(CO)C(O)C(O)C4NC(C)=O)[S][Cu-2]23[S]1 (stereo not shown) [Gal-Cu(gtsm)]
- stability of complex in aqueous buffers [1]: stable
- number-weighted hydrodynamic diameter ([2]; 1 mM in PBS (pH 7.4), DLS, error = standard deviation): 4.60±0.69 nm
- colloid formation in aqueous buffer ([2]; aqueous buffer): forms colloids
- ionophore toxicity (cell viability) (HEK 293T cells): non-toxic
- tissue copper content (ICP-MS) [3]: restores copper homeostasis
- glucose tolerance test ([3]; vs untreated HFD mice): improved metabolism
- liver steatosis and fattiness ([3]; vs untreated HFD mice): significantly reduced
- serum ALT assay ([3]; vs untreated HFD mice): rescued liver health
- BUN levels [4]: not
- ATP7B expression (ATP7B Cu export protein): reduced expression
- hepatic copper delivered relative to Cu(gtsm) [5]: ca. 4 times
- time for hepatic copper stores to clear to basal levels ([5]; ip): 72 h
- SOD assay, anti-oxidant activity (SOD): improved anti-oxidant activity
- serum ALT levels compared to vehicle control [6]: virtually the same
- CF4 fluorescence (HepG2 cells [7]): increased fluorescence
- ionophore toxicity (cell viability) (HepG2 cells [8]): non-toxic
